# Where two headings read alike, the source gives them in different places.
# Columns and labels:
# [1] = test system: VISA clinical isolates of MRSA (VI-MRSA) and of MSSA (VI-MSSA); assay: microbe, parasite or virus in culture; assay type: cell-based, Staphylococcus aureus
# Description: (§1) Each of the bacterial strains listed in Table 1-1 was shake-cultured at 37° C. overnight in 4 mL of a medium (Tryptical Soy Broth: TSB, product of Becton Dickinson and Company). FDA209P was used as a control.
# (§2) After completion of culturing, the resultant culture was suspended in a cation-adjusted Mueller Hinton Broth (CAMHB, product of Becton Dickinson and Company). Then, the obtained bacterial culture was adjusted in absorbance with the CAMHB so that the absorbance at 578 nm of the bacterial culture was adjusted to 0.3 measured by an absorption spectrometer. In addition, the resultant bacterial culture was 500-fold diluted with the CAMHB.
# (§3) Each of the 500-fold diluted, pre-cultured bacterial cultures was added at 50 μL/well to the CAMHB containing the quinolones and the nybomycins at various concentrations (50 μL/well), followed by statically culturing at 37° C. overnight.
# (§4) After completion of culturing, the growth of the bacteria was visually determined based on turbidity to measure MIC in each bacterial strain.
# Here, the glycopeptides used were VCM and TEIC. The β-lactam used was OXA.
# [2] = test system: MRSA, CA-MRSA and MSSA of Staphylococcus aureus; assay: MIC measurement, Test Example 4 (MRSA, CA-MRSA and MSSA strains); assay type: cell-based
# Description: as §1, §2, §3, §4
# Glycopeptides, imipenem, quinolones and nybomycins were studied for antibacterial activity against the bacterial strains listed in Table 2-1; i.e., MRSA, CA-MRSA and MSSA of Staphylococcus aureus.
# VRSA clinical isolates = conditions: based on NARSA, cited from earlier work
substance,measurement,setting,value
teicoplanin,MIC,"[1]; 99/3700-W, VI-MRSA, The United Kingdom",2 mg/L
same,MIC,"[1]; 99/3759-V, VI-MRSA, The United Kingdom",8 mg/L
same,MIC,"[1]; 28160, VI-MRSA, South African Republic",4 mg/L
same,MIC,"[1]; 98141, VI-MRSA, France",4 mg/L
same,MIC,"[1]; A7 (JCSC4842), VI-MRSA, Taiwan",8 mg/L
same,MIC,"[1]; AMC11094, VI-MRSA, Korea",8 mg/L
same,MIC,"[1]; B7 (JCSC4852), VI-MRSA, Taiwan",16 mg/L
same,MIC,"[1]; BR1, VI-MRSA, Brazil",2 mg/L
same,MIC,"[1]; BR2, VI-MRSA, Brazil",1 mg/L
same,MIC,"[1]; BR3, VI-MRSA, Brazil",4 mg/L
same,MIC,"[1]; BR4, VI-MRSA, Brazil",8 mg/L
same,MIC,"[1]; BR5, VI-MRSA, Brazil",4 mg/L
same,MIC,"[1]; HIP06297, VI-MRSA, America",8 mg/L
same,MIC,"[1]; HIP06854, VI-MRSA, America",2 mg/L
same,MIC,"[1]; HIP07920, VI-MRSA, America",2 mg/L
same,MIC,"[1]; HIP07930, VI-MRSA, America",4 mg/L
same,MIC,"[1]; HIP08926, VI-MRSA, America",4 mg/L
same,MIC,"[1]; HIP09143, VI-MRSA, America",4 mg/L
same,MIC,"[1]; HIP09313, VI-MRSA, America",4 mg/L
same,MIC,"[1]; HIP09433, VI-MRSA, America",8 mg/L
same,MIC,"[1]; HIP09662, VI-MRSA, America",4 mg/L
same,MIC,"[1]; HIP09735, VI-MRSA, America",4 mg/L
same,MIC,"[1]; HIP09737, VI-MSSA, America",4 mg/L
same,MIC,"[1]; HIP09740, VI-MRSA, America",4 mg/L
same,MIC,"[1]; HIP10267, VI-MRSA, America",4 mg/L
same,MIC,"[1]; HIP10540, VI-MRSA, America",16 mg/L
same,MIC,"[1]; HIP12864, VI-MRSA, America",8 mg/L
same,MIC,"[1]; HIP13036, VI-MRSA, America",4 mg/L
same,MIC,"[1]; HIP13057, VI-MRSA, America",8 mg/L
same,MIC,"[1]; IL (HIP7737), VI-MRSA, America",4 mg/L
same,MIC,"[1]; JCSC7193, VI-MRSA, Thailand",8 mg/L
same,MIC,"[1]; JCSC7195, VI-MRSA, Thailand",8 mg/L
same,MIC,"[1]; JCSC7203, VI-MRSA, Thailand",4 mg/L
same,MIC,"[1]; LIM2, VI-MRSA, France",8 mg/L
same,MIC,"[1]; LY-1999-01, VI-MSSA, Oman",8 mg/L
same,MIC,"[1]; LY-1999-03, VI-MRSA, Oman",8 mg/L
same,MIC,"[1]; MI (HIP5827), VI-MRSA, America",8 mg/L
same,MIC,"[1]; Mu3, VI-MRSA, Japan",8 mg/L
same,MIC,"[1]; Mu50, VI-MRSA, Japan",16 mg/L
same,MIC,"[1]; NJ (HIP5836), VI-MRSA, America",8 mg/L
same,MIC,"[1]; NRS76, VI-MSSA, America",4 mg/L
same,MIC,"[1]; NRS79, VI-MRSA, America",8 mg/L
same,MIC,"[1]; NRS118, VI-MRSA, America",8 mg/L
same,MIC,"[1]; NRS126, VI-MRSA, America",2 mg/L
same,MIC,"[1]; P1V44, VI-MSSA, Belgium",16 mg/L
same,MIC,"[1]; PC, VI-MRSA, America",4 mg/L
same,MIC,"[1]; SA MER-S6, VI-MSSA, France",8 mg/L
same,MIC,"[1]; SA MER-S12, VI-MSSA, France",16 mg/L
same,MIC,"[1]; SA MER-S20, VI-MSSA, France",32 mg/L
same,MIC,"[2]; ATCC 29213, MSSA",2 mg/L
same,MIC,"[2]; COL, MRSA",2 mg/L
same,MIC,"[2]; FDA209P, MSSA",0.06 mg/L
same,MIC,"[2]; ISA12-1, MRSA",1 mg/L
same,MIC,"[2]; ISA12-2, MRSA",1 mg/L
same,MIC,"[2]; ISA35-1, MRSA",2 mg/L
same,MIC,"[2]; ISA37-1, MSSA",1 mg/L
same,MIC,"[2]; ISA49-1, MSSA",0.5 mg/L
same,MIC,"[2]; ISA51-1, MSSA",0.5 mg/L
same,MIC,"[2]; ISA56-3, MRSA",4 mg/L
same,MIC,"[2]; ISA58-1, MRSA",2 mg/L
same,MIC,"[2]; ISA62-1, MRSA",1 mg/L
same,MIC,"[2]; ISA73-1, MSSA",2 mg/L
same,MIC,"[2]; KBSA32, MRSA",1 mg/L
same,MIC,"[2]; KBSA34, MRSA",1 mg/L
same,MIC,"[2]; KBSA72, MRSA",1 mg/L
same,MIC,"[2]; KBSA96, MRSA",1 mg/L
same,MIC,"[2]; KBSA171, MRSA",0.25 mg/L
same,MIC,"[2]; KSA24, MRSA",1 mg/L
same,MIC,"[2]; KSA31, MRSA",1 mg/L
same,MIC,"[2]; KSA36, MRSA",1 mg/L
same,MIC,"[2]; MW2, CA-MRSA",0.5 mg/L
same,MIC,"[2]; N315, MRSA",0.25 mg/L
same,MIC,"[2]; NCTC 8325, MSSA",0.5 mg/L
same,MIC,"[2]; USA300 FPR3757, CA-MRSA",1 mg/L
same,MIC,"VRSA clinical isolates; VRS1, VRSA, Michigan",64 mg/L
same,MIC,"VRSA clinical isolates; VRS2, VRSA, Pennsylvania",8 mg/L
same,MIC,"VRSA clinical isolates; VRS3, VRSA, New York",16 mg/L
same,MIC,"VRSA clinical isolates; VRS4, VRSA, New York",32 mg/L
same,MIC,"VRSA clinical isolates; VRS5, VRSA, Michigan",128 mg/L
same,MIC,"VRSA clinical isolates; VRS6, VRSA, Michigan",>256 mg/L
same,MIC,"VRSA clinical isolates; VRS7, VRSA, Michigan",>256 mg/L
